Experiments:
cotton plants [1] = experiment: Example 3 growth chamber trial, pre-emergent application on cotton; assay type: in vivo
Experimental: 0.1 L conical assay tubes were planted with a cotton or soybean seed in a sample of sandy loam soil. Seven tubes were prepared for each herbicide application rate. Application of a herbicide composition was performed after planting the seed and prior to the plant's emergence from the soil (i.e., pre-emergent or PRE). Approximately 0.15 inches of water was applied to each pot four hours after application. […] The greenhouse was maintained at 26±5° C. during the day and 11±1° C. during the night.

weeds in walnut orchard = experiment: Example 11 walnut orchard field trial: weed efficacy; assay type: in vivo
Experimental: A field trial was performed in a dormant 4th year walnut orchard (Chandler variety) located near Stockton, Calif. The trial was initiated in December for weed efficacy studies and crop tolerance studies. Plots were about 8 feet by about 18 feet (about 2.43 meters by about 5.49 meters) with one tree per plot arranged in a randomized complete block design with three replications. Fluridone, flumioxazin, Roundup, and glufosinate ammonium were tested.

cotton plants [2] = experiment: Pot demonstration of safening in cotton (FIG. 4); assay type: in vivo; settings: three cotton plants planted, flumioxazin only (FIG. 4)
Description: Flumioxazin is another herbicide member of the PPO-inhibitor class that is commonly applied pre-emergent to control weeds, and has the chemical name 2-[7-fluoro-3,4-dihydro-3-oxo-4-(2-propynyl)-2H-1,4-benzoxazin-6-yl]-4,5,6,7-tetrahydro-1H-isoindole-1,3(2H)-dione. In certain embodiments of the present invention, flumioxazin can be applied to soil at a rate of about 0.015 pounds per acre to about 0.25 pounds per acre. In other embodiments, flumioxazin can be applied to soil at a rate of about 0.03 pounds per acre to about 0.25 pounds per acre. In another embodiment, flumioxazin can be applied to soil at a rate of about […] to about 0.2 pounds per acre.

[3] = system: 'Thompson' grape (Vitis vinifera); experiment: Example 7 field trials: grape tolerance; assay type: in vivo; settings: PRE application, Kerman and Kingsburg
Description: (§1) Trials were placed in grape vineyards located in Kerman and Kingsburg, Calif. The soil in both locations is classified as a sandy loam. Preemergent herbicide applications were made in the month of January in Kerman and in the month of March in Kingsburg. […] Additionally, indaziflam applied at 0.065 lb/ac was included at the Kingsburg site. […] Both sites were irrigated as needed during the growing season to avoid drought conditions. Visual evaluations of crop injury and weed control were made monthly on a 0 to 100% scale. Cultivation occurred in the row centers at the Kerman location following the 58 DAT evaluations, and therefore, the Kerman results following 58 DAT were not evaluated. No cultivation occurred in Kingsburg during the trial period.

[4] = system: sweet almond (Prunus dulcis); experiment: Example 6 field trials: almond tolerance; assay type: in vivo; settings: Kerman, any PRE herbicide application
Experimental: (§2) Field trials were conducted in California to determine sweet almond (Prunus dulcis) tolerance to fluridone and efficacy of fluridone in an irrigated orchard environment. Trial locations included a two-year old almond stand in Kerman, Calif. and a six-year old stand in Shafter, Calif. The soil in both locations is classified as a sandy loam. Applications prior to emergence of weeds (PRE) of herbicides were made in the month of January in Kerman and in the month of January in Shafter. […] Rainfall (0.32 in (about 0.813 cm)) and irrigation (1.5 in (about 3.81 cm)) one day after PRE applications were used to incorporate herbicides into the soil at the Kerman and Shafter locations, respectively. Both sites were irrigated as needed during the growing season to avoid drought conditions. Visual evaluations of crop injury and weed control were made monthly on a 0 to 100% scale. Postemergent (POST) broadcast applications of a non-selective, contact herbicide was broadcast across all treatments in Kerman prior to the 90 days after treatment and 119 days after treatment (DAT) ratings. Thus, data from those ratings dates was not evaluated. No POST applications were made in Shafter.

cotton [5] = experiment: Greenhouse trial: cotton response across soil types and moisture conditions; assay type: in vivo
Description: In addition to these field trials, greenhouse studies were also undertaken. […] Four soil types were examined: a predominantly clay soil, a sandy loam soil, a loamy peat soil, and a sandy soil.

P. amaranth [6] = experiment: May field trial: weed control in cotton field; assay type: in vivo, Amaranthus palmeri; settings: May planting field trial, pre-emergent, 1 and 9 weeks post treatment
Experimental: (§3) Cotton was planted in fields in May. The field was then over seeded with P. amaranth. […] Within 24 hours of application of the herbicide, 0.25 inches of rain was recorded. An additional planting of cotton, by hand, was conducted in August with multiple rates.

P. amaranth [7] = experiment: Greenhouse trial: P. amaranth control across soil types and moisture conditions; assay type: in vivo, Amaranthus palmeri; settings: low moisture conditions across some soil types
Description: In addition to these field trials, greenhouse studies were also undertaken. The greenhouse studies evaluated the use of fluridone, fomesafen, and the combination of fluridone and fomesafen as well as the affect of soil types, and moisture conditions. Four soil types were examined: a predominantly clay soil, a sandy loam soil, a loamy peat soil, and a sandy soil. The moisture conditions evaluated were at 0.2 inches of water, and 1.5 inches of water.

cotton [8] = experiment: May field trial: phytotoxicity to cotton; settings: May planting field trial, pre-emergent, 1 and 9 weeks post treatment
Experimental: as §3

[9] = system: "Cara Cara" orange (Citrus sinensis); experiment: Example 8 field trial: orange tolerance; assay type: in vivo; settings: Elderwood, PRE application, trial period
[10] = system: witchgrass (Panicum capillare L.); experiment: Example 8 Elderwood orange orchard: witchgrass control; assay type: in vivo; settings: 168 DAT, three highest fluridone rates; indaziflam
Experimental: (§4) A field trial was conducted in California to evaluate tolerance of non-bearing “Cara Cara” orange (Citrus sinensis) to fluridone and the efficacy of fluridone in an irrigated orchard environment. The trial was initiated in the month of January in Elderwood, Calif. The soil on the trial site was classified as a clay. […] Rainfall (0.44 in. (about 1.12 cm)) that occurred in the first week following PRE application incorporated the herbicides into the soil. The site was irrigated as needed during the growing season to avoid drought conditions. Visual evaluations of crop injury and weed density were made on a 0 to 100% scale. Additionally, plant counts per plot of weed species present were conducted for each evaluation period.

[11] = system: prostrate spurge (Euphorbia supine Raf.); experiment: Example 8 Elderwood orange orchard: prostrate spurge control; assay type: in vivo; settings: 168 DAT, PRE
Experimental: as §4

hairy fleabane [12] = experiment: Example 8 Elderwood orange orchard: hairy fleabane control; assay type: in vivo
Experimental: as §4

Palmer amaranth = experiment: Example 10 dryland cotton field, Jackson, Tenn.: Palmer amaranth control; assay type: in vivo, Amaranthus palmeri; settings: fluridone 0.1 to 0.5 lb/ac
Experimental: An experiment with cotton was conducted during the months of April to the month of June in Jackson, Tenn. Plots were arranged as a randomized complete block with four replicates. Plots were 6.3 ft by 30 ft (about 1.92 meteres by about 9.114 meters). The soil on the site was classified as a silt loam soil. […] The site received approximately four inches (about 10.16 cm) of rainfall in the first 35 days after treatment (DAT). Visually evaluations of Palmer amaranth control were made twice a month on a 0 to 100% scale.

yellow nutsedge = experiment: Example 6 Shafter almond orchard: yellow nutsedge control; assay type: in vivo, Cyperus esculentus L.
Experimental: as §2

[13] = system: yellow nutsedge (Cyperus esculentus L.); experiment: Example 6 Kerman almond orchard: yellow nutsedge control; assay type: in vivo; settings: 184 DAT, 0.4 and 0.8 lb fluridone/ac
Experimental: as §2

weeds = experiment: Example 12 UC Davis almond orchard: weed control; assay type: in vivo; settings: 1 to 5 months after treatment, all treatment rates
Experimental: (§5) A field trial was conducted in northern California for weed control and safety in one peach orchand and two almond orchards. The herbicide applications were made between January and February when the tree crops were dormant.

[14] = system: sprangletop (Leptochloa sp.); experiment: Example 6 Shafter almond orchard: sprangletop control; assay type: in vivo; settings: 211 DAT, three highest rates of fluridone
Experimental: as §2

[15] = system: Palmer amaranth (Amaranthus palmeri); experiment: Example 9 greenhouse: preemergence Palmer amaranth control under varying irrigation; assay type: in vivo; settings: fluridone 0.2 lb/ac, coarse sand soil, irrigation 0 to 1.0 inch
Experimental: An experiment was conducted beginning in the month of August in a greenhouse. The greenhouse was arranged as a randomized complete block with four replicates. A coarse sand soil was used to fill four inch diameter pots. […] Overhead irrigation occurred eight and 10 days after treatment, applying an additional 0.25 inch (abou 0.635 cm) of water to each pot. Palmer amaranth control was determined by counting seedlings in each pot weekly.

[16] = system: redmaids (Calandrinia sp.); experiment: Example 7 Kerman vineyard: redmaids control; assay type: in vivo; settings: 58 DAT, fluridone 0.2, 0.4 and 0.8 lb/ac
Description: as §1

[17] = system: weeds (total weed control); experiment: Example 10 irrigated walnut, Stockton, Calif.: total weed control; assay type: in vivo; settings: fluridone 0.2 to 0.4 lb/ac
Experimental: An experiment with walnut was conducted during the months of December to the month of June the following year in Stockton, Calif. Plots were arranged as a randomized complete block with three replicates. Plots were 8 ft×8 ft (about 2.43 meters by meters)(1 tree/plot). The soil on the site is classified as a clay loam. […] The site received approximately four inches (about 10.16 cm) of rainfall in the first 35 DAT, and an additional 2.9 inches (about 7.366 cm) rainfall and 6.5 inches (about 16.51 cm) irrigation the next 124 days thereafter. Visually evaluations of weed control were made monthly on a 0 to 100% scale.

[18] = system: hare barley, annual sowthistle, black medic, chickweed, and redstem filaree; experiment: Example 12 Arbuckle almond orchard: weed control; assay type: in vivo; settings: approximately 1, 2 and 3 months after treatment
Experimental: as §5
Weed control and crop safety were evaluated at approximately 1, 2, and 3 months after treatment. Weed pressure was fairly heavy, and uniform over the trial site. Populations of hare barley, annual sowthistle, black medic, chickweed, and redstem filaree were recorded.

hairy fleabane [19] = experiment: Example 6 Shafter almond orchard: hairy fleabane control; assay type: in vivo, Conyza bonariensis; settings: 211 DAT, fluridone 0.4 and 0.8 lb/ac
Experimental: as §2

[20] = system: spotted spurge (Euphorbia maculate); experiment: Example 6 Shafter almond orchard: spotted spurge control; assay type: in vivo; settings: 211 DAT, fluridone 0.4 and 0.8 lb/ac
Experimental: as §2

[21] = system: crabgrass (Digitaria spp.); experiment: Example 6 Kerman almond orchard: crabgrass control; assay type: in vivo; settings: 184 DAT, 0.4 and 0.8 lb fluridone/ac
Experimental: as §2

C#CCN1C(=O)COc2cc(F)c(N3C(=O)C4=C(CCCC4)C3=O)cc21 [flumioxazin, 2-[7-fluoro-3,4-dihydro-3-oxo-4-(2-propynyl)-2H-1,4-benzoxazin-6-yl]-4,5,6,7-tetrahydro-1H-isoindole-1,3(2H)-dione]
crop stand (number of viable plants) (cotton plants [1]; 0.05 lb/A flumioxazin, seven tubes): one surviving plants out of seven | growth stage / growth stunting (cotton plants [1]; 26 days after treatment, flumioxazin 0.05 lb/A, scale 0-3): the most growth stunting | injury to cotton plants (cotton plants [1]; application rates greater than 0.025 lb/A flumioxazin): significantly injured | cotyledons with excessive wrinkling and brown spotting due to herbicide injury (cotton plants [1]; flumioxazin alone 0.05 lb/A, 26 days after treatment): all of the cotyledons show brown spotting | lethality to cotton plants (cotton plants [1]; flumioxazin at the highest rates (FIG. 15)): fatal to cotton plants | weeds observed in plots (weeds in walnut orchard; 129 DAT, lower rates): Some weeds were observed | emergence of cotton plants from the soil (cotton plants [2]): only one emerged from the soil | phytotoxicity [3]: Phytotoxicity was not observed | phytotoxicity [4]: Phytotoxicity was not observed

CS(=O)(=O)NC(=O)c1cc(Oc2ccc(C(F)(F)F)cc2Cl)ccc1[N+](=O)[O-] [fomesafen, 5-[2-chloro-4-(trifluoromethyl)phenoxy]-N-(methylsulfonyl)-2-nitrobenzamide]
growth of treated cotton plants (cotton [5]; 4 weeks after planting (FIG. 3A, 3B)): stunting effect on cotton | stunting (cotton [5]; less than ideal growing conditions, compared to fluridone and fluridone/fomesafen treatments): some stunting was observed | control of P. amaranth (P. amaranth [6]): showed control of P. amaranth | P. amaranth control (P. amaranth [7]): not able to provide complete P. amaranth control | phytotoxicity (cotton [8]): no phytotoxicity was observed

Cc1ccc2c(c1)[C@H](Nc1nc(N)nc(C(C)F)n1)[C@@H](C)C2 (mixture of isomers) [indaziflam, N-[(1R,2S)-2,3-dihydro-2,6-dimethyl-1H-inden-1-yl]-6-[(1RS)-1-fluoroethyl]-1,3,5-triazine-2,4-diamine]
phytotoxicity [9]: did not contribute to phytotoxicity | control of witchgrass [10]: 100% | prostrate spurge control [11]: 95% | phytotoxicity [3]: Phytotoxicity was not observed | hairy fleabane control (hairy fleabane [12]): Neither fluridone nor indaziflam effectively controlled

1-methyl-3-phenyl-5-[3-(trifluromethyl)phenyl]-4(1H)-pyridone [fluridone]
Palmer amaranth control (Palmer amaranth): good control of Palmer amaranth | yellow nutsedge control compared to 0.1 and 0.2 lb fluridone/ac (yellow nutsedge; 211 DAT, fluridone 0.4 and 0.8 lb/ac): significantly greater control | yellow nutsedge control compared to flumioxazin (yellow nutsedge; fluridone applied at every rate): significantly greater than flumioxazin | weeds observed in plots (weeds in walnut orchard; 129 DAT, lower rates): Some weeds were observed | weeds observed in plots (weeds in walnut orchard; 159 DAT, fluridone applied at lower rates): lambsquarter, bindweed, spurge and knotweed were observed | yellow nutsedge control compared to flumioxazin [13]: similar | weed control (weeds): good weed control | control of witchgrass [10]: 100% | sprangletop control compared to flumioxazin [14]: significantly greater control than flumioxazin | preemergent Palmer amaranth control vs amount of irrigation [15]: increasing the amount of irrigation increases preemergent control | redmaids control greater than flumioxazin [16]: 13.5% | total weed control [17]: good total weed control | control of all weeds present [18]: ~100% | hairy fleabane control compared to 0.1 and 0.2 lb fluridone/ac (hairy fleabane [19]): significantly greater control | hairy fleabane control (hairy fleabane [12]): Neither fluridone nor indaziflam effectively controlled | spotted spurge control compared to 0.1 and 0.2 lb fluridone/ac [20]: significantly greater control | crabgrass control greater than flumioxazin [21]: 10%

From patent US11026423B2, “Herbicidal compositions and methods” (SePRO Corporation, priority 2013, dated 2021)
